The Kd is a measure of binding affinity in units of concentration.

Data on 12 molecules can be found in paper PMC3375286, “Crystal Structures Reveal the Multi-Ligand Binding Mechanism of Staphylococcus aureus ClfB” (PLoS Pathogens, 2012).

Where no end group is shown, it is not given here.

One test has as its target T1, ClfB (Staphylococcus aureus, UniProt O86476).
T1 construct: The fragment of the ClfB gene (corresponding 197–542 aa) was amplified by PCR; His-tag; made in house; host or cells: E. coli BL21
T1 sequence (O86476 197-542): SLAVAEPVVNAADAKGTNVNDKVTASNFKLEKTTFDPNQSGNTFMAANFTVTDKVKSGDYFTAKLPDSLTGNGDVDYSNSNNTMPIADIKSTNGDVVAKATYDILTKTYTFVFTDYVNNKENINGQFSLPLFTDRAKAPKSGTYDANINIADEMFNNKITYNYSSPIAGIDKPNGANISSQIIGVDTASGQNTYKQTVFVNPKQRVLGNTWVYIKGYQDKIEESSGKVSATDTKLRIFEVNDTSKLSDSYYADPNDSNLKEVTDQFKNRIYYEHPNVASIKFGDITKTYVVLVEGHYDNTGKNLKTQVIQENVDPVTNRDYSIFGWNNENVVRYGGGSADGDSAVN
The test is described as follows: SPR (BIAcore T200) alanine scan of 9-residue GSR peptides and the 6-residue peptide on immobilized ClfB. Format: binding. The following applies: SPR BIAcore T200, 10°C; ClfB amine-coupled (~5300 RU) on CM5 chip; peptides 31.25-2000 µM in 10 mM HEPES pH 7.4, 150 mM NaCl, 0.005% Tween 20; 30 µl/min; 1:1 Langmuir fit. The method, then: A. Panel of dermokine peptides. […] Navy, 2000 µM; Magenta, 1000 µM; Dark cyan or dark yellow, 500 µM; Blue, 250 µM; Red, 125 µM; Green, 62.5 µM; Black, 31.25 µM.
The binding affinities between ClfB and the ten 9-amino–acid peptides and the 6-amino-acid peptide were determined by surface plasmon resonance (SPR) using BIAcore T200 instrument (GE Healthcare) at 10°C. The ClfB protein was immobilized to about 5300 Response Unit (RU) on a research-grade CM5 sensor chip in 10 mM sodium acetate, pH 5.0 by standard amine coupling method. The flow cell 1 was left blank as a reference. […] The ligands were allowed to associate for 60 s and dissociate for 120 s. Data were analyzed with the BIAcore T200 evaluation software by fitting to a 1∶1 Langmuir binding fitting model.
(In general: SPR reads the build-up and loss of mass on a sensor chip optically.)

The next test deals with T2, ClfB(197–542) wildtype (Staphylococcus aureus, UniProt O86476).
T2 construct: The fragment of the ClfB gene (corresponding 197–542 aa) was amplified by PCR; His-tag; made in house; host or cells: E. coli BL21
T2 sequence (O86476 197-542): T1 sequence (O86476 197-542)
The test is described as follows: SPR (ProteOn XPR36) binding of ClfB(197–542) wild type to immobilized peptide 15 from Dermokine. The following applies: SPR ProteOn XPR36, peptide captured on NLC Sensor Chip (460 RU), 25°C, 10 mM HEPES pH 7.2, 150 mM NaCl; ClfB(197–542) injected at 87.5-700 µM; repeated three times; read-out: dissociation constant (KD). The method, then:
Firstly, Derm was tested for its interaction with ClfB. To this end, we synthesized a 15-amino-acid-peptide (250–264; […], designated as Derm15 hereafter) derived from Derm and then characterized its binding to ClfB using the SPR (Surface Plasmon Resonance) assay. In the assay, ClfB bound to the peptide with a dissociation constant of 2.37 µM (Figure 7A). […] To understand the molecular mechanism underlying this interaction, we solved the crystal structure of ClfB(208–542) bound to the peptide at 2.5 Å resolution. As expected, Derm15 interacts with ClfB in a nearly identical manner with Fg α(316–328) and CK10(499–512) (Figure 7 B). The ClfB^Arg529 forms a hydrogen bond with […] and the C-terminus of N3 forms an extra strand, which is similar as that in the ClfB-Fg α(316–328) and ClfB-CK10(499–512) complexes (Figure 7 C). Mutagenesis studies were conducted to further verify the binding of Derm15 to ClfB. We replaced the residues ClfB^S236, W522 that participate in interactions with the peptide with alanine respectively. The mutant proteins were purified to homogeneity and tested for their interaction with the Derm peptide using SPR.
Figure 7 Dermokine is a potential ligand of ClfB. […] Red, 700 µM; blue, 350 µM; green, 87.5 µM. […]
Binding of ClfB(197–542) to peptide 15 was assessed by SPR using the ProteOn XPR36 equipment (Bio-Rad Laboratories, Inc.). […]

In the next test the target is T3, Dermokine (Homo sapiens).
T3 chain: SQSGSSGSGSNGDNN
Briefly: SPR.

GSSGSGANG [Peptide8] displayed a Kd at ClfB of 326 µM.
In turn, GSSGSASNG [Peptide7] showed a Kd on ClfB of 1610 µM.
Take GQSGSSGSGSNGDNN [Derm15]: the dissociation constant Kd on ClfB(197–542) wildtype came to 2.37 µM.
In the case of GSSGSG [Peptide11], binding at ClfB was put at a Kd of 833 µM.
Still for that read-out and setting: the figure for GSSGSGSNA [Peptide10] is 1170 µM.
As for GASGSGSNG [Peptide3], the Kd on ClfB came out at 1240 µM.
On to GSSASGSNG [Peptide5], for which the equilibrium dissociation constant (Kd) at ClfB came to 1140 µM.
Still for that read-out and setting: the result for GSSGSGSAG [Peptide9] reads 403 µM.
For the molecule GSAGSGSNG [Peptide4], at ClfB, the dissociation constant (Kd) was determined as 502 µM.
On ClfB, GSSGAGSNG [Peptide6] showed a Kd of 195 µM.
Same read-out and setting: the figure for ASSGSGSNG [Peptide2] is 1600 µM.

B1: Clumping factor B 197-542 (protein)
chain: SLAVAEPVVNAADAKGTNVNDKVTASDFKLEKTAFDPNQSGNTFMAANFKVTGQVKSGDYFTAKLPDSVTGNGDVDYSNSNNTMPIADIKSTNGDVVAKATYDILTKTYTFVFTDYVNDKENINGQFSLPLFTDRAKAPKSGTYDANINIADEMFDNKITYNYSSPIAGIDKPNGANISSQIIGVDTASGQNTYKQTVFVNPKQRVLGNTWVYIKGYQDKIEESSGKVSATDTKLRIFEVNDTSKLSDSYYADPNDSNLKEVTGEFKDKISYKYDNVASINFGDINKTYVVLVEGHYDNTGKNLKTQVIQENIDPATGKDYSIFGWNNENVVRYGGGSADGDSAVN
In turn, B1 yielded a Kd in the test with Dermokine of 2.37 µM.
